Laboratory results as given in doi:10.1101/2025.03.14.643404, “A Bivalent Molecular Glue Linking Lysine Acetyltransferases to Oncogene-induced Cell Death” (bioRxiv, 2025).
Entries after “also recorded” stand apart in the source; their conditions may differ.

Experiments:
CBP = biological target: T1, CBP (Homo sapiens, UniProt Q92793); experiment: Global proteome profiling in SUDHL5, CBP abundance; assay type: cell-based; conditions: SUDHL5, 10 nM, 24 hours
T1 construct: endogenous in cells; host or cells: SUDHL5
T1 sequence (Q92793 whole entry): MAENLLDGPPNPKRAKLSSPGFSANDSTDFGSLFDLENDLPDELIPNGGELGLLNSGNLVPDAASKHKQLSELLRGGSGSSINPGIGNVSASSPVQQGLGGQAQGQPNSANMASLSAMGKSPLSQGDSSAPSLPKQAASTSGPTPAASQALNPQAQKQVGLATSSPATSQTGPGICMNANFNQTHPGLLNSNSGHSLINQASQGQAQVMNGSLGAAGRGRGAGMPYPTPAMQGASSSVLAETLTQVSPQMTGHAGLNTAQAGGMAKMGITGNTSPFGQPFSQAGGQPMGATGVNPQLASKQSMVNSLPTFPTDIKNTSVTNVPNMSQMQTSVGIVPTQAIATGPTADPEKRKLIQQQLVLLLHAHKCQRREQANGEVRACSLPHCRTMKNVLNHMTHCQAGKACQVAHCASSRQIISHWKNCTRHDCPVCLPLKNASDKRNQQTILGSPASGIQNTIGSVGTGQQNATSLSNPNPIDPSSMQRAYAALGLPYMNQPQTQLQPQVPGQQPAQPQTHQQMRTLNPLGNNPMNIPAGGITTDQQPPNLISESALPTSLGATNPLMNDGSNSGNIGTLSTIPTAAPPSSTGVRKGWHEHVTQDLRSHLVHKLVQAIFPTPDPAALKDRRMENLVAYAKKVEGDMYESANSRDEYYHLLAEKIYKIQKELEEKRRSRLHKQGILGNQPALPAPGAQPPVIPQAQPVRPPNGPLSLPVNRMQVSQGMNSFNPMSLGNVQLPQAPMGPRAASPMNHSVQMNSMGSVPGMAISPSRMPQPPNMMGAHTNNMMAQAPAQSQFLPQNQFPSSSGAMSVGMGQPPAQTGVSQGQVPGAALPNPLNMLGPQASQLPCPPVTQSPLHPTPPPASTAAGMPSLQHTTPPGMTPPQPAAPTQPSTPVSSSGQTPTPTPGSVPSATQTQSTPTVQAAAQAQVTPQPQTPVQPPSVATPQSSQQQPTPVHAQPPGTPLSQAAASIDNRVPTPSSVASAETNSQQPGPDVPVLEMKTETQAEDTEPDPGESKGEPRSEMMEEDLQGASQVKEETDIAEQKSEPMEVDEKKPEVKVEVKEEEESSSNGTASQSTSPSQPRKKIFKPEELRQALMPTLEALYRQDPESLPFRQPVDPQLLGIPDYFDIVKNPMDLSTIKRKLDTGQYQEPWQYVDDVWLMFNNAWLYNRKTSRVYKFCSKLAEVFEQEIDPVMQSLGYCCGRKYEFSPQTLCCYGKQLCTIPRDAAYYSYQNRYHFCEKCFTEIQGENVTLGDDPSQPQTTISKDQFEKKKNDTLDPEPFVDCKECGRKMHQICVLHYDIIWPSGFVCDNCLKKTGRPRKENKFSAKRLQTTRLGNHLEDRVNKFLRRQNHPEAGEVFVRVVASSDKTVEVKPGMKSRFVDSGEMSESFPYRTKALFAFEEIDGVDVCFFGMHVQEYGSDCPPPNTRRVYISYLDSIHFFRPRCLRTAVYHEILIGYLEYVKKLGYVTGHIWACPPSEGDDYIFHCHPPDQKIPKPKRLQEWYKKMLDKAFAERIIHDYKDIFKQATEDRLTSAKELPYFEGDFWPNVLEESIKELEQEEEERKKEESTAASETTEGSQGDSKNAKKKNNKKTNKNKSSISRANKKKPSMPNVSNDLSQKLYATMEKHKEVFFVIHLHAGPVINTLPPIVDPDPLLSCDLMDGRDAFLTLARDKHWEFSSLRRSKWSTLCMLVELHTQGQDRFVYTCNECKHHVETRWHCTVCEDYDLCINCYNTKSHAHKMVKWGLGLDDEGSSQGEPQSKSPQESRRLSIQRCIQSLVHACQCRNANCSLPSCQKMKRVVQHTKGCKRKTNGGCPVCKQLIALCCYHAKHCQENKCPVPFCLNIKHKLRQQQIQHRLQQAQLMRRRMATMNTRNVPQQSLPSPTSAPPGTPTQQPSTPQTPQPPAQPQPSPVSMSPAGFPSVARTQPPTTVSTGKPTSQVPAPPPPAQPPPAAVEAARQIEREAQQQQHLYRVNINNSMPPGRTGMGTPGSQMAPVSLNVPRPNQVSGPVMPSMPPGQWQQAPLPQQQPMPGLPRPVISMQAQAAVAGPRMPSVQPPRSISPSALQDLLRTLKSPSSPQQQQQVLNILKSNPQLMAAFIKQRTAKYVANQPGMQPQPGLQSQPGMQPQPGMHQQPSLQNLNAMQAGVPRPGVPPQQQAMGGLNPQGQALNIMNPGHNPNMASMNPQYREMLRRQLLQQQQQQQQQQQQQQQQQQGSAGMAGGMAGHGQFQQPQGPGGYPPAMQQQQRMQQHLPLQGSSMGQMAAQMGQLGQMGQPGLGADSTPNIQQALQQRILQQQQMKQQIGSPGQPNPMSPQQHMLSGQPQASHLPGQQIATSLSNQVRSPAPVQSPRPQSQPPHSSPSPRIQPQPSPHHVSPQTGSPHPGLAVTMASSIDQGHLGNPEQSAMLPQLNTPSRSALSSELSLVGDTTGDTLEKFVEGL
Description: SUDHL5 cells (6M cells in 6 mL RPMI-1640 media supplemented with 10% FBS and 1x pen-strep) were treated with 0.1% DMSO, 10 nM TCIP3, 10 nM Neg1, 10 nM Neg2, or 250 nM dCBP1 (1000x stocks in DMSO for final 0.1% DMSO concentration) in 3 biologically independent replicates. The cells were washed twice with TBS (50 mM Tris, pH 8.5, and 150 mM NaCl) and then stored at −80 °C until use.
Lysis was performed by first thermally denaturing the samples in residual wash buffer for 5 min at 95 °C. Fresh Lysis Buffer (8 M urea, 150 mM NaCl, and 100 mM HEPES, pH 8.0, in MS-grade water) was then added, and the lysates were homogenized using needle ultrasonication and then normalized to 30 μg of 2 mg/mL by diluting with Lysis Buffer via a Bradford protein concentration assay (Bio-Rad 5000006) in technical duplicates. […]
Samples were then desalted using SOLAμ SPE HRP Peptide Desalting columns (Thermo 60209–001) with a Positive Pressure Manifold and all MS-grade reagents. […] The samples were then reconstituted in 0.1% FA in water and then analyzed by LC-MS/MS (see below).
The reconstituted desalted peptides were then analyzed using a nanoElute 2 UHPLC (Bruker Daltonics, Bremen, Germany) coupled to a timsTOF HT (Bruker Daltonics, Bremen, Germany) via a CaptiveSpray nano-electrospray source. […]

BBC3/PUMA = experiment: Western blot of BBC3/PUMA in SUDHL5; assay type: cell-based, human; conditions: SUDHL5, 48 hours
Description: (§1) Cells were plated at 1M/mL and treated with drug at indicated timepoints and doses. Cells were harvested on ice in RIPA buffer (50mM Tris-HCl pH 8, 150mM NaCl, 1% NP-40, 0.1% DOC, 1% SDS, protease inhibitor cocktail (~20 mg/ml pepstatin, aprotinin, and leupeptin), 1mM DTT) and 1:200 benzonase (Sigma E1014) was added and incubated for 20 mins. After 10 min centrifugation at 14,000g and 4 °C, the supernatant was collected and protein concentration was measured by Bradford. SDS-PAGE analysis was carried out in either 4–12% or 12% Bis-Tris PAGE gels (Thermo NW04120 and NW04127). Antibodies used for immunoblots were: BCL6 (1:1000 v:v, Cell Signaling D65C10), p300 (1:250, Santa Cruz F-4 sc-48343), CBP (1:1000, Cell Signaling D6C5), c-MYC (1:1000, Cell Signaling D84C12), Caspase-3 (1:1000, Cell Signaling 9662), GAPDH (1:2000, Santa Cruz 6C5 sc-32233), BBC3/PUMA (1:1000, Cell Signaling E2P7G), FOXO3 (1:1000, Cell Signaling 75D8), H3K27ac (1:1000, abcam ab4729), H2BK20ac (1:1000, Cell Signaling D709W), H3 (1:10,000, Cell Signaling 1B1B2), H2B (1:10,000, Cell Signaling D2H6), p27/CDKN1B (1:1000, Cell Signaling D69C12), and TP53 (1:1000, Santa Cruz DO-1). ImageStudio (Licor) was used for blot imaging and quantification.

[1] = tested on: B and T cells isolated from primary tonsillar lymphocytes; experiment: Viability of primary tonsillar lymphocytes, 72 h; assay type: cell-based, human; conditions: primary tonsillar lymphocytes of two donors, compared with SUDHL5
c-MYC protein = experiment: Western blot of c-MYC protein in SUDHL5; assay type: cell-based, human
Description: as §1

BRPF1 = biological target: T2, BRPF1 (Homo sapiens, UniProt P55201); experiment: BROMOscan binding to recombinant human bromodomains; conditions: 10 μM
T2 construct: purchased BROMOscan (service)
T2 sequence (P55201 628-732 limits assumed): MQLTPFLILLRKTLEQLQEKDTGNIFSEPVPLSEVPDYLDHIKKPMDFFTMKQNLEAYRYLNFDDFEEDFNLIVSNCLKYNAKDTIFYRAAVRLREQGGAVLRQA

CNC(=O)COc1cc2cc(Nc3nc(N4CCC(C(=O)N5CCN(CCC(=O)N6CCC(n7nc(N8CCCc9cc(-c%10cnn(C)c%10)c(C(F)F)cc98)c8c7CCN(C(=O)NC)C8)CC6)CC5)CC4)ncc3Cl)cc(OC)c2n(C)c1=O [TCIP3]
CBP protein abundance log2(fold change) (CBP): 0.58 | PUMA expression increase (BBC3/PUMA): more than 6 fold | cytotoxicity [1]: substantially reduced cytotoxicity; also recorded: without exhibiting toxicity | t1/2 of c-MYC protein decrease (c-MYC protein; SUDHL5, 1 nM): 2.5 h | IC50 (c-MYC protein; SUDHL5, 4 hours, read-out: IC50 of c-MYC protein repression): ~0.8 nM | bromodomain selectivity (BRPF1): may also engage BRPF1 at high compound concentrations
